Source: patent US10093712B2, “Immunostimulatory compositions and uses thereof” (Susavion Biosciences, Inc., priority 2004, dated 2018)
Like-named read-outs stand apart in the source and are kept apart here. Where no end group is shown, it is not given here.

Tests used:
[1] = test system: adherent peripheral blood cells; experiment: Oxidative burst of adherent peripheral blood cells, change in absorbance of cytochrome c after PMA; type: cell-based
Method: FIG. 7. Response of adherent peripheral blood cells to mimetic peptides. Reduction of cytochrome c by superoxide anion radical is indicated by an increase in absorbance (OD), whereas a loss of absorbance indicates destruction of the cytochrome. (A) Total adherent cells from 300 μl of blood were assayed. Samples 1 and 2 contained 5 nM and 2.5 nM branched mimetic peptide, respectively. Samples 3 and 4 contained 5 nM and 2.5 nM linear mimetic peptide, respectively. Sample 5 contained 50 ng/ml lipopolysaccharide (weight equivalent to 6 nM peptide). Sample 6, untreated control cells. (B) Adherent cells were scraped from the surface and 1×10^5 cells were placed in each well. The assay was performed as in (A). Samples 1 and 2 contained 10 nM and 5 nM mimetic peptide, respectively. Samples 3 and 4 contained 10 nM and 5 nM linear peptide, respectively. Sample 5 contained 50 ng/ml lipopolysaccharide. Sample 6, untreated control cells.
(§1) Oxidative burst: Peripheral blood samples were removed from animals and 300 μl added to wells of a 96-well microtiter plate and incubated overnight at 38° C. in a standard CO2-incubator. The nonadherent cells, including erythrocytes, and serum were removed and centrifuged to pellet cells and obtain cell-free serum. RPMI 1640 medium containing 2 to 10% serum from the same animal were added to each well and incubation of the culture is continued for various periods of time. The polypeptide mimetic was then added to a concentration of 1 to 10 nM and incubation continued for 3 h.
One type of assay of cellular activity measures the response of adherent cells to the polypeptide mimetic by the change in absorbance of cytochrome c (Johnston et al., 1978; Pick and Mizel, 1981). Phorbol 12-myristate 13-acetate (PMA) was added to 140 nM and then cytochrome c was added to 15 μM. Change in absorbance was monitored continuously at 550 nm over 20 min. With 300 μl in each well, reduction of cytochrome c was calculated as: Δnanomoles=absorbance at 550 nm×100/2.1 (Pick and Mizel, 1981). Positive control samples were run with lipopolysaccharide, a known stimulator of macrophage activity. Negative controls lack stimulant.
The oxidative burst upon addition of PMA involves production of the superoxide anion radical. The superoxide anion radical is a strong reducing agent and reduces cytochrome c, which is detected by an increase in absorbance of the sample. Additionally, these cells produce the nitric oxide radical, which reacts with superoxide anion radical at diffusion-limited rates to produce the strong oxidant, peroxynitrite anion (Ischiropoulos et al., 1992). These strong oxidants apparently cause loss of absorbance of the cytochrome.
Without treatment with the polypeptide, again no change in absorbance of the cytochrome was detected.

[2] = test system: peripheral blood adherent cells; experiment: Pyrogallol oxidation initiated by superoxide anion radical from peripheral blood adherent cells; type: cell-based; conditions: 3.4, 1.7 or 0.7 nM versus 50 ng/ml lipopolysaccharide, FIG. 8
Method: FIG. 8. Assay of pyrogallol oxidation initiated by superoxide anion radical generation by peripheral blood adherent cells treated with stimulants. Samples 1, 2, and 3, contained 3.4, 1.7 or 0.7 nM (25, 12.5 or 5 ng/ml) of the branched mimetic, respectively. Sample 4 contained 50 ng/ml lipopolysaccharide. Sample 5, untreated control cells.
as §1
The response of cells to the polypeptide was also assayed by oxidation of pyrogallol (Marldund and Marklund, 1974) in a reaction initiated by superoxide anion radical (FIG. 8).

[3] = test system: canine peripheral blood macrophages; experiment: Phagocytosis of fluorescently labeled bacterial cells, trypan blue quench, microscopy; type: cell-based; conditions: for phagocytosis of bacterial cells: then bacterial cells 10 minutes
Method: FIG. 9. Microscopic analysis of phagocytosis of fluorescently labeled bacterial cells by adherent cells from canine peripheral blood samples. […] The sample was treated 15 h with 5 nM branched peptide mimetic and then incubated with fluorescently-labeled bacterial cells for 10 min. Fluorescence of bacterial cells that remained extracellular was quenched with trypan blue. […] The samples were not treated with the peptide mimetic, and most of the cells, as in (D) were not fluorescent. A very low level of fluorescence, evidence of low phagocytic activity, was occasionally seen, as shown in (C). Gain was set to maximize detection of fluorescence. Such control samples show the highest level of phagocytosis of bacterial that we have observed. In many experiments, control cells show no fluorescence.
(§2) Phagocytosis: Phagocytosis was measured by the uptake of fluorescently-labeled bacterial cells (Molecular Probes, Inc.) or fluorescent polystyrene beads (Polyscience, Inc). Phagocytosis can be quantitated by quenching extracellular (unphagocytized) bacterial cells by addition of the dye trypan blue to the suspension and measuring the remaining (intracellular) fluorescence (Wan et al., 1993).
In one experiment, canine peripheral blood macrophages were treated for 15 hours with 5 nM branched polypeptide (FIG. 4), and then incubated with bacterial cells for 10 minutes, followed by microscopic analysis. Fluorescence of bacterial cells that remained extracellular was quenched with trypan blue. […] (See FIG. 9)
In another experiment, adherent canine peripheral blood cells were treated for 5 hours with 10 nM branched polypeptide (FIG. 4) and then washed. Fluorescent bacterial cells were added, and after 10 minutes, trypan blue was added to quench extracellular bacterial cells. Cells were examined by light microscopy and then by fluorescent microscopy. Contrast in the fluorescent images was maximized to detect any fluorescence in control samples. […] Treated and control samples were from the same dog.

[4] = test system: adherent macrophages or neutrophils from canine peripheral blood; experiment: Phagocytosis of fluorescent polystyrene beads; type: cell-based; conditions: 3.4 nM (25 ng/ml)
Method: as §2
Phagocytosis of polystyrene beads: Peripheral blood from the canines was added to confocal dishes and incubated over night to allow macrophage adherence. The cells were washed away with PBS, HBSS, or RPMI. Only adherent macrophages or neutrophils remained on the glass surface and were left to incubate in the above mentioned buffers. Polypeptide was then added at 3.4 nM (25 ng/ml) for a 5-hour incubation. At this point, beads were added for a 10-minute incubation. All incubations were done in 37° C. with 5% CO2.

[5] = test system: recurring, advanced cancer; conditions: for quality of life: canine cancer patients, subjective; for tumor load / size of the primary tumor: several patients / some cases
Method: Owners of dogs that were used to obtain preliminary data were required to sign informed consent and agreement to necropsy forms. Dogs with histologically or cytologically confirmed cancer were given the polypeptide mimetic at doses of 100 to 1,500µg by weekly perfusion into the blood or subcutaneously 3 times per week. The effective dose of the glycopeptide used by Schneider et al. (2003) was 0.4 ng/g body weight given every other day. On this basis, a minimal weekly dose should be 1.4 ng/g body weight. For a large animal (80 lb or 36 kg dog), the starting, minimal-effective, weekly dose of the synthetic mimetic polypeptide would therefore be 50µg or 6.8 nmoles. For initial studies, the mimetic polypeptide (FIG. 4) was administered at a 20-fold higher dose.

[6] = pH 7.4
From the text: The product was dried and then dissolved in sterile phosphate buffered saline, pH 7.4.

## [(VQATQSNQHTPRGGGS)2K]2K.beta.AC (not fully specified (C-terminus); printed as [(VQATQSNQHTPRGGGS)2K]2K.beta.AC; also: four-branch lysine core [(seq)2K]2K, betaAla-Cys on core) [branched polypeptide mimetic]
[1]; FIG. 7
  oxidative burst response compared with linear polypeptide: stronger response than the linear polypeptide
[1]; higher concentrations of polypeptide (5 to 10 nM), FIG. 7A
  change in absorbance of cytochrome c: rapid loss of absorbance
[1]; low concentrations of mimetic polypeptide (1 nM), PMA 140 nM, cytochrome c 15 μM, 550 nm
  change in absorbance of cytochrome c: increase in absorbance of cytochrome c
[1]; lowered cell number (1×10^5 cells per well), FIG. 7B
  rate of reduction of cytochrome c: correlated with the amount of polypeptide mimetic added
[1]; on an equal weight basis
  oxidative burst response compared with lipopolysaccharide: even stronger than to lipopolysaccharide
[2]
  oxidation of pyrogallol, activity as stimulant: most active stimulant
[3]; 5 nM for 15 hours
  phagocytosis of bacterial cells: dramatically increased phagocytosis
[3]; 10 nM for 5 hours
  attachment of neutrophils: more of the smaller neutrophils become attached
  phagocytosis of bacterial cells: dramatically increased phagocytosis
[4]
  detachment of neutrophils from the surface: induced detachment of neutrophils from the surface
[4]; 5-hour incubation, 10 to 30 minutes after bead addition
  phagocytosis of polystyrene beads: presence of the beads within cells
[5]; listed as branched peptide mimetic
  quality of life: dramatic improvement in quality of life
[5]; listed as polypeptide
  quality of life: remarkable extension and improvement in the quality of life
  tumor load / size of the primary tumor: reduction in size of the primary tumor
[5]; listed as polypeptide mimetic
  quality of life: dramatically enhanced
  tumor load / size of the primary tumor: reduction in tumor load was detected
[5]; several animals, advanced cancer
  survival on the treatment: ≥ 6 months
[5]; several canine patients with advanced cancer
  extension of life: extension of life beyond what would be normally expected
[5]; several patients
  behavior: restored to pre-disease activities
[6]
  stability of the product: at least 3 months

## lipopolysaccharide [reference compound]
[1]; lipopolysaccharide positive control
  change in absorbance of cytochrome c: increase in absorbance of cytochrome c
